Data published in patent US20250050671A1, “THERMOSENSITIVE RECORDING LAYER FORMING LIQUID, THERMOSENSITIVE RECORDING MEDIUM AND PRODUCTION METHOD THEREOF, AND IMAGE RECORDING METHOD” (Ricoh Company, Ltd., priority 2021, published 2025).

Assay: Measurement of solubility of electron-accepting compound to solvent (saturated solution, gravimetric)
Format: physicochemical
Details: for Electron-accepting compound Solubility to ethanol: Table 2, repeated per forming liquid, 20° C.; for Solubility, alcohol solvent ethanol / Solubility, ester solvent ethyl acetate / Solubility, alcohol solvent isopropyl alcohol / Solubility, alcohol solvent methanol / Solubility, ketone solvent methyl ethyl ketone / Solubility, aromatic solvent toluene: saturated solution at 20° C.±3° C.
Protocol: <Measurement of Solubility of Electron-Accepting Compound to Solvent> […]
(2) While stirring a stirrer or a stirring rod, an electron-accepting compound was added gradually until insoluble matter of the electron-accepting compound appears at the bottom of the beaker.
(3) The resultant was left to stand for 1 hour or longer with a lid placed on top of the beaker.
(4) If the insoluble matter was completely disappeared by stirring with the stirring rod, the processes (2) to (4) were repeated.
(5) If the insoluble matter was remained after standing for 1 hour or longer, it was determined that preparation of a saturated solution was completed.
A weight (A) of an aluminium cup was weighed with the minimum unit of 1 mg or less.
The part of the transparent supernatant liquid of the saturated solution prepared in 1 was collected by a pipette, and the collected liquid was placed in the aluminium cup (about 0.8 g to about 1.3 g in weight) and a weight of the liquid was weighed with the minimum unit of 1 mg or less.
The aluminium cup in which the liquid was collected was placed in a dryer (120° C.±10° C.). Alternatively, the aluminium cup in which the liquid was collected is placed on a hot plate (120° C.±10° C.) in an area where a local ventilation was installed.
The solvent was evaporated from the liquid for 25 minutes or longer (a lid was placed to prevent inclusion of dusts when a hot plate was used).
The aluminium cup was removed from the drier or hot plate, and was left to stand for 1 minute or longer indoor, followed by weighing the total amount (C) with a unit of 1 mg or less.

Row | Electron-accepting compound Solubility to ethanol [% by mass] | Solubility, alcohol solvent ethanol [% by mass] | Solubility, ester solvent ethyl acetate [% by mass] | Solubility, alcohol solvent isopropyl alcohol [% by mass] | Solubility, alcohol solvent methanol [% by mass] | Solubility, ketone solvent methyl ethyl ketone [% by mass] | Solubility, aromatic solvent toluene [% by mass] | Structure (SMILES)
1 | 4.7 | 4.7 | 9.0 | 4.5 | 24.8 | 30.2 | 0.7 | Oc1ccc(C2(c3ccc(O)cc3)c3ccccc3-c3ccccc32)cc1 [Electron-Accepting Compound 1, 9,9-Bis(4-hydroxyphenyl)fluorene]
2 | 0.6 | 0.6 | 1.6 | 0.8 | 0.6 | 8.1 | 0.1 | Cc1ccc(S(=O)(=O)Oc2cccc(NC(=O)Nc3ccccc3)c2)cc1 [Electron-Accepting Compound 3]
3 | 0.4 | 0.4 | 2.1 | 0.4 | 0.8 | 12.7 | 0.1 | Cc1ccc(S(=O)(=O)NC(=O)Nc2cccc(OS(=O)(=O)c3ccc(C)cc3)c2)cc1 [Electron-Accepting Compound 4, N-p-toluenesulfonyl-N′-3-(p-toluenesulfonyloxyphenyl)urea]
4 | 0.1 | 0.1 | 1.3 | 0.1 | 0.1 | 11.3 | 0.1 | Cc1ccc(S(=O)(=O)Oc2cccc(NC(=O)Nc3cccc(OS(=O)(=O)c4ccc(C)cc4)c3)c2)cc1 [Electron-Accepting Compound 5, N,N′-di-[3-(p-toluenesulfonyloxy)phenyl]urea]
5 | 34.1 | 34.1 | 9.7 | 34.1 | 33.7 | 36.5 | 0.1 | O=S(=O)(c1ccc(O)cc1)c1ccc(O)cc1 [Electron-Accepting Compound 6, 4,4′-sulfonylbisphenol, reference compound]
